Test results taken from patent US12441695B2, “Substituted thiadiazinone dioxide and preparation method therefor, herbicidal composition, and application therefor” (Qingdao Kingagroot Chemical Compound Co., Ltd., priority 2019, dated 2025).

Experiments:
[1] = test system: monocotyledonous and dicotyledonous weeds; experiment: Experiment on weeding effect in post-emergence stage (weeds); assay type: in vivo; details: 3 weeks after application; for Amaranthus retroflexus activity level (growth control rate): fomesafen-resistant Amaranthus retroflexus
From the text: The activity level criteria for plant damage (i.e., growth control rate) are as follows: • Level 5: growth control rate is above 85%; • Level 4: growth control rate is greater than or equal to 60% and less than 85%; • Level 3: growth control rate is greater than or equal to 40% and less than 60%; • Level 2: growth control rate is greater than or equal to 20% and less than 40%; • Level 1: growth control rate is greater than or equal to […]; • Level 0: growth control rate is less than 5%.
(§1) The above growth control rates are fresh weight control rates.
(§2) (1) Experiment on weeding effect in post-emergence stage: monocotyledonous and dicotyledonous weed seeds and major crop seeds (wheat, corn, rice, soybean, cotton, oilseed rape, millet, sorghum) were placed in plastic pots filled with soil, then covered with 0.5-2 cm of soil, allowed to grow in a good greenhouse environment. After 2-3 weeks of sowing, the test plants were treated. The tested compounds of the present invention were respectively dissolved in acetone, then added with Tween 80, diluted with a certain amount of water to obtain a solution with a certain concentration, and sprayed with a spray tower onto the plants. After the application, the plants were cultured for 3 weeks in the greenhouse, and then the experimental results of the weeding were listed in Table 2.

[2] = test system: major crops (wheat, corn, rice, soybean, cotton, oilseed rape, millet, sorghum); experiment: Experiment on weeding effect in post-emergence stage (crops); assay type: in vivo; details: 600 g/ha active ingredient plus water 450 kg/ha, 3 weeks after application; for corn plant damage level (growth control rate): crop corn; for rice plant damage level (growth control rate): crop rice; for soybean plant damage level (growth control rate): crop soybean
Protocol: as §1
as §2, with “plants.” for “plants. After the application, the plants were cultured for 3 weeks in the greenhouse, and then the experimental results of the weeding were listed in Table 2.”

[3] = 600 g/ha active ingredient plus water 450 kg/ha, fresh weight control rate

## CC(C)OC(=O)OC(C)N1c2ccc(F)cc2C(=O)N(C(C)C)S1(=O)=O (racemic) [Compound 193]
[1]; [3]
  Amaranthus retroflexus activity level (growth control rate): 4 (Level 4: growth control rate is greater than or equal to 60% and less than 85%)
[2]
  corn plant damage level (growth control rate): 0 (Level 0: growth control rate is less than 5%)
  rice plant damage level (growth control rate): 0 (Level 0: growth control rate is less than 5%)
  soybean plant damage level (growth control rate): 0 (Level 0: growth control rate is less than 5%)

## CC(C)N1C(=O)c2cc(F)ccc2N(C(C)OC(=O)OC2CCCCC2)S1(=O)=O (racemic) [Compound 194]
[1]; [3]
  Amaranthus retroflexus activity level (growth control rate): 4 (Level 4: growth control rate is greater than or equal to 60% and less than 85%)
[2]
  corn plant damage level (growth control rate): 0 (Level 0: growth control rate is less than 5%)
  rice plant damage level (growth control rate): 0 (Level 0: growth control rate is less than 5%)
  soybean plant damage level (growth control rate): 0 (Level 0: growth control rate is less than 5%)

## CC(C)OC(=O)OC(C)N1c2c(F)cc(F)cc2C(=O)N(C(C)C)S1(=O)=O (racemic) [Compound 226]
[1]; [3]
  Amaranthus retroflexus activity level (growth control rate): 5 (Level 5: growth control rate is above 85%)
[2]
  corn plant damage level (growth control rate): 1 (Level 1: growth control rate is greater than or equal to 500 and less than 200%)
  rice plant damage level (growth control rate): 0 (Level 0: growth control rate is less than 5%)

## CC(C)N1C(=O)c2cc(F)cc(F)c2N(C(C)OC(=O)OC2CCCCC2)S1(=O)=O (racemic) [Compound 227]
[1]; [3]
  Amaranthus retroflexus activity level (growth control rate): 3 (Level 3: growth control rate is greater than or equal to 40% and less than 60%)
[2]
  corn plant damage level (growth control rate): 0 (Level 0: growth control rate is less than 5%)
  rice plant damage level (growth control rate): 1 (Level 1: growth control rate is greater than or equal to 500 and less than 200%)
  soybean plant damage level (growth control rate): 1 (Level 1: growth control rate is greater than or equal to 500 and less than 200%)

## CC(C)N1C(=O)c2cc(Cl)ccc2NS1(=O)=O [A, reference compound]
[1]; [3]
  Amaranthus retroflexus activity level (growth control rate): 1 (Level 1: growth control rate is greater than or equal to 500 and less than 200%)
  Digitaria sanguinalis activity level (growth control rate): 1 (Level 1: growth control rate is greater than or equal to 500 and less than 200%)
  Echinochloa crus-galli activity level (growth control rate): 1 (Level 1: growth control rate is greater than or equal to 500 and less than 200%)
  Setaria viridis activity level (growth control rate): 2 (Level 2: growth control rate is greater than or equal to 20% and less than 40%)
[2]
  corn plant damage level (growth control rate): 0 (Level 0: growth control rate is less than 5%)
  rice plant damage level (growth control rate): 0 (Level 0: growth control rate is less than 5%)
  soybean plant damage level (growth control rate): 0 (Level 0: growth control rate is less than 5%)

## CC(C)N1C(=O)c2cc(Br)ccc2NS1(=O)=O [B, reference compound]
[1]; [3]
  Amaranthus retroflexus activity level (growth control rate): 1 (Level 1: growth control rate is greater than or equal to 500 and less than 200%)
  Digitaria sanguinalis activity level (growth control rate): 0 (Level 0: growth control rate is less than 5%)
  Echinochloa crus-galli activity level (growth control rate): 0 (Level 0: growth control rate is less than 5%)
  Setaria viridis activity level (growth control rate): 0 (Level 0: growth control rate is less than 5%)
[2]
  corn plant damage level (growth control rate): 0 (Level 0: growth control rate is less than 5%)
  rice plant damage level (growth control rate): 0 (Level 0: growth control rate is less than 5%)
  soybean plant damage level (growth control rate): 0 (Level 0: growth control rate is less than 5%)

## CC(C)N1C(=O)c2cc(I)ccc2NS1(=O)=O [C, reference compound]
[1]; [3]
  Amaranthus retroflexus activity level (growth control rate): 0 (Level 0: growth control rate is less than 5%)
  Digitaria sanguinalis activity level (growth control rate): 0 (Level 0: growth control rate is less than 5%)
  Echinochloa crus-galli activity level (growth control rate): 0 (Level 0: growth control rate is less than 5%)
  Setaria viridis activity level (growth control rate): 0 (Level 0: growth control rate is less than 5%)
[2]
  corn plant damage level (growth control rate): 0 (Level 0: growth control rate is less than 5%)
  rice plant damage level (growth control rate): 0 (Level 0: growth control rate is less than 5%)
  soybean plant damage level (growth control rate): 0 (Level 0: growth control rate is less than 5%)

## CC(C)N1C(=O)c2cc(F)ccc2NS1(=O)=O [Compound 2]
[1]; [3]
  Amaranthus retroflexus activity level (growth control rate): 5 (Level 5: growth control rate is above 85%)
  Digitaria sanguinalis activity level (growth control rate): 3 (Level 3: growth control rate is greater than or equal to 40% and less than 60%)
  Echinochloa crus-galli activity level (growth control rate): 4 (Level 4: growth control rate is greater than or equal to 60% and less than 85%)
  Setaria viridis activity level (growth control rate): 4 (Level 4: growth control rate is greater than or equal to 60% and less than 85%)
[2]
  corn plant damage level (growth control rate): 1 (Level 1: growth control rate is greater than or equal to 500 and less than 200%)
  rice plant damage level (growth control rate): 0 (Level 0: growth control rate is less than 5%)
  soybean plant damage level (growth control rate): 1 (Level 1: growth control rate is greater than or equal to 500 and less than 200%)

## CC(C)N1C(=O)c2cc(F)ccc2N(C)S1(=O)=O [Compound 49]
[1]; [3]
  Amaranthus retroflexus activity level (growth control rate): 5 (Level 5: growth control rate is above 85%)
  Echinochloa crus-galli activity level (growth control rate): 3 (Level 3: growth control rate is greater than or equal to 40% and less than 60%)
  Setaria viridis activity level (growth control rate): 3 (Level 3: growth control rate is greater than or equal to 40% and less than 60%)
[2]
  corn plant damage level (growth control rate): 0 (Level 0: growth control rate is less than 5%)
  rice plant damage level (growth control rate): 0 (Level 0: growth control rate is less than 5%)
  soybean plant damage level (growth control rate): 0 (Level 0: growth control rate is less than 5%)

## CC(C)N1C(=O)c2cc(F)cc(F)c2N(C(=O)OCCCCl)S1(=O)=O [Compound 221]
[1]; [3]
  Amaranthus retroflexus activity level (growth control rate): 5 (Level 5: growth control rate is above 85%)
  Digitaria sanguinalis activity level (growth control rate): 5 (Level 5: growth control rate is above 85%)
  Echinochloa crus-galli activity level (growth control rate): 4 (Level 4: growth control rate is greater than or equal to 60% and less than 85%)
  Setaria viridis activity level (growth control rate): 5 (Level 5: growth control rate is above 85%)

## CCS(=O)(=O)N1c2c(F)cc(F)cc2C(=O)N(C(C)C)S1(=O)=O [Compound 228]
[1]; [3]
  Amaranthus retroflexus activity level (growth control rate): 5 (Level 5: growth control rate is above 85%)
  Digitaria sanguinalis activity level (growth control rate): 3 (Level 3: growth control rate is greater than or equal to 40% and less than 60%)
  Echinochloa crus-galli activity level (growth control rate): 3 (Level 3: growth control rate is greater than or equal to 40% and less than 60%)
  Setaria viridis activity level (growth control rate): 5 (Level 5: growth control rate is above 85%)

## CS(=O)(=O)NC(=O)c1cc(Oc2ccc(C(F)(F)F)cc2Cl)ccc1[N+](=O)[O-] [fomesafen, reference compound]
[1]; 300 g/ha
  Digitaria sanguinalis activity level (growth control rate): 0 (Level 0: growth control rate is less than 5%)
  Echinochloa crus-galli activity level (growth control rate): 1 (Level 1: growth control rate is greater than or equal to 500 and less than 200%)
  Setaria viridis activity level (growth control rate): 2 (Level 2: growth control rate is greater than or equal to 20% and less than 40%)
  Amaranthus retroflexus activity level (growth control rate): 1 (Level 1: growth control rate is greater than or equal to 500 and less than 200%)
